Ki data for 22 compounds are collected here from patent US20240150293A1, “SPIROCYCLOHEXANE DERIVATIVES, PHARMACEUTICAL COMPOSITIONS CONTAINING THEM AND THEIR USES AS ANTI-APOPTOTIC INHIBITORS” (LES LABORATOIRES SERVIER, priority 2021, published 2024).

pKi: −log10 of the molar value.

Chain of Mcl-1 protein (Q07820 whole entry): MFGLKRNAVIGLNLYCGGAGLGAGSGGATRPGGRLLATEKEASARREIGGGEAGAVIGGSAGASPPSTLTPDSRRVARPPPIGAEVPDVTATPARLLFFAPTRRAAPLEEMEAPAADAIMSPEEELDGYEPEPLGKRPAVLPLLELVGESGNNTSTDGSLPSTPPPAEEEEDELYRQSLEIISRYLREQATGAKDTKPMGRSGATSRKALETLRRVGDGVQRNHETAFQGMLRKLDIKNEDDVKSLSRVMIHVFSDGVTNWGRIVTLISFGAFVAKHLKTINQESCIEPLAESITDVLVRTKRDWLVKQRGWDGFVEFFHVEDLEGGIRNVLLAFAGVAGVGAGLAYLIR

The test deals with Mcl-1 protein (UniProtKB Q07820) (Homo sapiens (Human), UniProt Q07820). Briefly: Inhibition of Mcl-1 by the fluorescence polarisation assay (Example A, Method A). It counts as binding. The conditions noted are these: fluorescence polarization assay. The method, boiled down:
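Protein (5 nM) and fluorescein-tagged peptide tracer (1 nM) incubated with 11-point compound series for 2 h at room temperature in HEPES/NaCl/Tween 20 buffer, pH 7.4, 5% DMSO. Displacement read as decrease in polarisation; IC50 fitted by 4-parameter logistic, converted to Ki (cKi or eKi).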
(Fluorescence polarisation rises when a labelled molecule tumbles more slowly, as on binding a larger partner.)
The term pKi denotes −log10 of the Ki, conventionally taken in molar units. As for `O=C(O)[C@]1(Nc2cccc(Cl)c2)CC[C@]2(CC1)C(c1cccc(Oc3ccncc3)c1)=Cc1ccccc12` [Example 377, (1s,4s)-4-(3-chloroanilino)-2′-{3-[(pyridin-4-yl)oxy]phenyl}spiro[cyclohexane-1,1′-indene]-4-carboxylic acid], the pKi was 7.13.

On to `O=C(O)[C@]1(Nc2cccc(Cl)c2)CC[C@@]2(CC1)c1ccccc1CC2CCCCc1ccccc1` (stereo partly shown) [Example 394, (1r,4r)-4-(3-chloroanilino)-2′-(4-phenylbutyl)-2′,3′-dihydrospiro[cyclohexane-1,1′-indene]-4-carboxylic acid], for which the pKi was 6.87.

On to `O=C(O)[C@]1(Nc2cccc(Cl)c2)CC[C@]2(CC1)C(CCOCc1ccccc1)=Cc1ccccc12` [Example 395, (1r,4r)-2′-[2-(benzyloxy)ethyl]-4-(3-chloroanilino)spiro[cyclohexane-1,1′-indene]-4-carboxylic acid], for which the pKi was 7.00.

For `O=C(O)[C@]1(Nc2cccc(Cl)c2)CC[C@@]2(CC1)c1ccccc1CC2CCOCc1ccccc1` (stereo partly shown) [Example 396, (1r,4r)-2′-[2-(benzyloxy)ethyl]-4-(3-chloroanilino)-2′,3′-dihydrospiro[cyclohexane-1,1′-indene]-4-carboxylic acid], the pKi is 6.49.

With `O=C(O)[C@]1(Nc2cccc(Cl)c2)CC[C@@]2(CC1)c1ccccc1CC2CCCSc1ccccc1` (stereo partly shown) [Example 397, (1r,4r)-4-(3-chloroanilino)-2′-[3-(phenylsulfanyl)propyl]-2′,3′-dihydrospiro[cyclohexane-1,1′-indene]-4-carboxylic acid], the pKi was 6.22.

As to `O=C(O)[C@]1(Nc2cccc(Cl)c2)CC[C@@]2(CC1)c1ccccc1CC2CCCS(=O)(=O)c1ccccc1` (stereo partly shown) [Example 398, (1r,4r)-2′-[3-(benzenesulfonyl)propyl]-4-(3-chloroanilino)-2′,3′-dihydrospiro[cyclohexane-1,1′-indene]-4-carboxylic acid], the negative-log Ki (pKi) was 5.88.

`O=C(O)[C@]1(Nc2cccc(Cl)c2)CC[C@@]2(CC1)c1ccccc1CC2CCCSc1ccncc1` (stereo partly shown) [Example 399, (1r,4r)-4-(3-chloroanilino)-2′-{3-[(pyridin-4-yl)sulfanyl]propyl}-2′,3′-dihydrospiro[cyclohexane-1,1′-indene]-4-carboxylic acid]: the pKi was 6.52.

Regarding `O=C(O)[C@]1(Nc2cccc(Cl)c2)CC[C@@]2(CC1)c1ccccc1CC2OCCCc1ccccc1` (stereo partly shown) [Example 400, (1s,4s)-4-(3-chloroanilino)-2′-(3-phenylpropoxy)-2′,3′-dihydrospiro[cyclohexane-1,1′-indene]-4-carboxylic acid], the pKi was 6.04.

Regarding `Cc1cnccc1CCCOC1Cc2ccccc2[C@]12CC[C@@](Nc1cccc(Cl)c1)(C(=O)O)CC2` (stereo partly shown) [Example 401, (1s,4s)-4-(3-chloroanilino)-2′-[3-(3-methylpyridin-4-yl)propoxy]-2′,3′-dihydrospiro[cyclohexane-1,1′-indene]-4-carboxylic acid], the pKi was 6.49.

Turning to `O=C(NCCc1ccncc1)C1=Cc2ccccc2[C@]12CC[C@@](Nc1cccc(Cl)c1)(C(=O)O)CC2` [Example 402, (1s,4s)-4-(3-chloroanilino)-2′-{[2-(pyridin-4-yl)ethyl]carbamoyl}spiro[cyclohexane-1,1′-indene]-4-carboxylic acid], the pKi is 4.73.

With `CN(CCc1ccncc1)C(=O)C1=Cc2ccccc2[C@]12CC[C@@](Nc1cccc(Cl)c1)(C(=O)O)CC2` [Example 403, (1s,4s)-4-(3-chloroanilino)-2′-{methyl[2-(pyridin-4-yl)ethyl]carbamoyl}spiro[cyclohexane-1,1′-indene]-4-carboxylic acid], the pKi is 5.09.

Consider `O=C(O)[C@]1(Nc2cccc(Cl)c2)CC[C@]2(CC1)C(COCCc1ccccc1F)=Cc1ccccc12` [Example 410, (1s,4s)-4-(3-chloroanilino)-2′-{[2-(2-fluorophenyl)ethoxy]methyl}spiro[cyclohexane-1,1′-indene]-4-carboxylic acid], for which the pKi was 6.26.

With `Cc1cccc(CCOCC2=Cc3ccccc3[C@]23CC[C@@](Nc2cccc(Cl)c2)(C(=O)O)CC3)c1` [Example 411, (1s,4s)-4-(3-chloroanilino)-2′-{[2-(3-methylphenyl)ethoxy]methyl}spiro[cyclohexane-1,1′-indene]-4-carboxylic acid], the pKi was 6.23.

For `O=C(O)[C@]1(Nc2cccc(Cl)c2)CC[C@]2(CC1)C(COCCc1cccc(F)c1)=Cc1ccccc12` [Example 412, (1s,4s)-4-(3-chloroanilino)-2′-{[2-(3-fluorophenyl)ethoxy]methyl}spiro[cyclohexane-1,1′-indene]-4-carboxylic acid], the negative logarithm of the Ki (pKi) was 6.33.

For `O=C(O)[C@]1(Nc2cccc(Cl)c2)CC[C@]2(CC1)C(COCCc1ccc(F)cc1)=Cc1ccccc12` [Example 413, (1s,4s)-4-(3-chloroanilino)-2′-{[2-(4-fluorophenyl)ethoxy]methyl}spiro[cyclohexane-1,1′-indene]-4-carboxylic acid], the pKi was 6.15.

For `COc1ccccc1CCOCC1=Cc2ccccc2[C@]12CC[C@@](Nc1cccc(Cl)c1)(C(=O)O)CC2` [Example 414, (1s,4s)-4-(3-chloroanilino)-2′-{[2-(2-methoxyphenyl)ethoxy]methyl}spiro[cyclohexane-1,1′-indene]-4-carboxylic acid], the pKi was 6.51.

For `Cc1ccccc1CCOCC1=Cc2ccccc2[C@]12CC[C@@](Nc1cccc(Cl)c1)(C(=O)O)CC2` [Example 415, (1s,4s)-4-(3-chloroanilino)-2′-{[2-(2-methylphenyl)ethoxy]methyl}spiro[cyclohexane-1,1′-indene]-4-carboxylic acid], the pKi is 6.44.

On to `Cc1ccc(CCOCC2=Cc3ccccc3[C@]23CC[C@@](Nc2cccc(Cl)c2)(C(=O)O)CC3)cc1` [Example 416, (1s,4s)-4-(3-chloroanilino)-2′-{[2-(4-methylphenyl)ethoxy]methyl}spiro[cyclohexane-1,1′-indene]-4-carboxylic acid], for which the pKi is 6.21.

Consider `O=C(O)[C@]1(Nc2cccc(Cl)c2)CC[C@]2(CC1)C(COCCc1cccc(Cl)c1)=Cc1ccccc12` [Example 417, (1s,4s)-4-(3-chloroanilino)-2′-{[2-(3-chlorophenyl)ethoxy]methyl}spiro[cyclohexane-1,1′-indene]-4-carboxylic acid], for which the pKi is 6.28.

Consider `COc1cccc(CCOCC2=Cc3ccccc3[C@]23CC[C@@](Nc2cccc(Cl)c2)(C(=O)O)CC3)c1` [Example 418, (1s,4s)-4-(3-chloroanilino)-2′-{[2-(3-methoxyphenyl)ethoxy]methyl}spiro[cyclohexane-1,1′-indene]-4-carboxylic acid], for which the pKi is 6.19.

Regarding `O=C(O)[C@]1(Nc2cccc(Cl)c2)CC[C@]2(CC1)C(COCCc1ccccc1Cl)=Cc1ccccc12` [Example 419, (1s,4s)-4-(3-chloroanilino)-2′-{[2-(2-chlorophenyl)ethoxy]methyl}spiro[cyclohexane-1,1′-indene]-4-carboxylic acid], the pKi was 6.52.

Take `O=C(O)[C@]1(Nc2cccc(Cl)c2)CC[C@]2(CC1)C(COCCc1ccc(Cl)cc1)=Cc1ccccc12` [Example 420, (1s,4s)-4-(3-chloroanilino)-2′-{[2-(4-chlorophenyl)ethoxy]methyl}spiro[cyclohexane-1,1′-indene]-4-carboxylic acid]: the pKi was 5.96.
